Results on eleven compounds are retold here after US6028112A, “Spirocyclopropyl fluorenes as melatonergic agents” (Bristol-Myers Squibb Company, priority 1998, dated 2000).

A value given as a limit tells only on which side of the number the result lay.

The target in one assay is T1, melatonin ML1A receptor (Homo sapiens, UniProt P48039).
T1 construct: expressed in transfected cells; membrane homogenates
T1 sequence (P48039 whole entry): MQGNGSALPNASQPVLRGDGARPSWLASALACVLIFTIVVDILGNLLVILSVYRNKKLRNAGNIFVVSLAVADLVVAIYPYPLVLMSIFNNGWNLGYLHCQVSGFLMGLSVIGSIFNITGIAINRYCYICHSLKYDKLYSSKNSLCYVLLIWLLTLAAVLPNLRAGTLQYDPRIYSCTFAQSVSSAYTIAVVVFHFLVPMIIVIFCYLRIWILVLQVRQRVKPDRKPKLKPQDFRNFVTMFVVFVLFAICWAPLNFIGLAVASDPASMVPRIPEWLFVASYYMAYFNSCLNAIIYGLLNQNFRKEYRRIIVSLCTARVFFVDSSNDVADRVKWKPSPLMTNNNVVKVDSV
The experiment in a line: Melatonergic receptor binding activity (2-[125I]-iodomelatonin, membrane homogenates of NIH-3T3 cells expressing the ML1A receptor). The note with it: 37° C., 1 hour, class symbols, read-out: Melatonin Binding Affinity (IC50 Range). The method, then:
Melatonergic Receptor Binding Activity
(a) TME=50 mM Tris buffer containing 12.5 mM MgCl2, and 2 mM EDTA, pH 7.4 at 37° C. with concentrated HCl.
(b) Wash buffer: 20 mM Tris base containing 2 mM MgCl2. pH 7.4 at room temperature.
(c) 10^-4 M melatonin (10^-5 M final concentration).
(d) 2-[^125 I]-iodomelatonin, […] final concentration
2. Membrane Homogenates. The melatonin ML1A receptor cDNA was subcloned into pcDNA3 and introduced into NIH-3T3 cells using Lipofectamine. Transformed NIH-3T3 cells resistant to geneticin (G-418) were isolated, and single colonies expressing high levels of 2[^125 Iiodomelatonin binding were isolated. Cells are maintained in DMEM supplemented with 10% calf serum and G-418 (0.5 g/liter). Cells are grown to confluency in T-175 flasks, scraped using Hank's balanced salt solution, and frozen at -80° C. For preparing membrane homogenates,pellets are thawed on ice, and resuspended in TME buffer in the presence of 10 μg/ml aprotinin and leupeptin, and 100 μM phenylmethylsulfonylfluoride. The cells were then homogenized using a dounce homogenizer, and centrifuged. The resulting pellet was resuspended with dounce homogenizer in TME (supplemented with the above protease inhibitors) and frozen. On the day of assay, the small aliquot was thawed on ice and resuspended in ice cold TME (1:50-1:100 v/v) and held on ice until assayed.
3. Incubation: 37° C. for 1 hour. Reaction is terminated by filtration. Filters are washed 3 times.
4. References: Reppert, S. M., and Ebisawa, R. (1994). Neuron, 13, 1177-1185.
A word on the IC50: it is the concentration that inhibits the measured activity by half. Turning to `CCC(=O)NCC1CC12c1cc(F)ccc1-c1ccc(OC)cc12` (stereo not drawn) [Example 12, cis-N-[(2'-Fluoro-7'-methoxy-spiro[cyclopropane-1,9'-[9H]fluoren]-2-yl)methyl]propanamide], the IC50 is < 10 nM.

Take `COc1ccc2c(c1)C1(CC1CNC(=O)C1CC1)c1cc(OC)ccc1-2` (centres unmarked) [Example 8, N-[(2',7'-Dimethoxyspiro[cyclopropane-1,9'-[9H]fluoren]-2-yl)methyl]cyclopropane carboxamide]: the IC50 was < 10 nM.

Regarding `CCCC(=O)NCC1CC12c1cc(OC)ccc1-c1ccc(OC)cc12` (centres unmarked) [Example 7, N-[(2',7'-Dimethoxyspiro[cyclopropane-1,9'-[9H]fluoren]-2-yl)methyl]butanamide], the IC50 was < 10 nM.

`COc1ccc2c(c1)C1(CC1CNC(C)=O)c1cc(OC)ccc1-2` (centres unmarked) [Example 6, N-[(2',7'-Dimethoxyspiro[cyclopropane-1,9'-[9H]fluoren]-2-yl)methyl]acetamide]: the IC50 was < 10 nM.

For the compound `CCC(=O)NCC1CC12c1cc(OC)ccc1-c1ccc(OC)cc12` (centres unmarked) [Example 3, N-[(2',7'-Dimethoxyspiro[cyclopropane-1,9'-[9H]fluoren]-2-yl)methyl]propanamide], the IC50 was < 10 nM.

For the compound `CCC(=O)NCC1CC12c1cc(OC)ccc1-c1ccc(OC)cc12` (single isomer, unassigned; (-)) [Example 4, (-)-N-[(2'7'-Dimethoxyspiro[cyclopropane-1,9'-[9H]fluoren]-2-yl)methyl]propanamide], the IC50 was < 10 nM.

As for `CCC(=O)NCC1CC12c1cc(F)ccc1-c1ccc(OC)cc12` (stereo not drawn) [Example 13, trans-N-[(2'-Fluoro-7'-methoxy-spiro[cyclopropane-1,9'-[9H]fluoren]-2-yl)methyl]propanamide], the IC50 was < 10 nM.

`CCC(=O)NCC1CC12c1cc(OC)ccc1-c1ccc(OC)cc12` (single isomer, unassigned; (+)) [Example 5, (+)-N-[(2',7'-Dimethoxyspiro[cyclopropane-1,9'-[9H]fluoren]-2-yl)methyl]propanamide]: the IC50 is < 10 nM.

As for `COc1ccc2c(c1)C1(CC1CNC(=O)C1CCC1)c1cc(OC)ccc1-2` (centres unmarked) [Example 9, N-[(2',7'-Dimethoxyspiro[cyclopropane-1,9'-[9H]fluoren]-2-yl)methyl]-cyclobutane carboxamide], the IC50 fell in the range of 10 to 100 nM.

`COc1ccc2c(c1)C1(CC1CNC(=O)C(C)(C)C)c1cc(OC)ccc1-2` (centres unmarked) [Example 10, N-[(2',7'-Dimethoxyspiro[cyclopropane-1,9'-[9H]fluoren]-2-yl)methyl]-2,2-dimethylpropanamide]: the IC50 lay in the range of 100 to 250 nM.

The next assay concerns circadian rhythms in rats.
Test: not given
The note with it: exogenous administration, Cassone, et al., 1986; cited from earlier work.
`COc1ccc2[nH]cc(CCNC(C)=O)c2c1` [melatonin, N-acetyl-5-methoxytryptamine]: the “synchronization of circadian rhythms” value is “found to synchronize circadian rhythms in rats”.
